Ki data for one compound are collected here from BindingDB's records for doi:10.1038/sj.npp.1300203 (Case Western Reserve University, 2003).

The target in experiment [1] is Prostaglandin E2 receptor EP4 subtype (Homo sapiens, UniProt P35408).
Another experiment addresses Histamine H3 receptor (Cavia porcellus, UniProt Q9JI35).
The target in experiment [2] is T1, Prostaglandin E2 receptor EP3 subtype (Homo sapiens, UniProt P43115).
T1 sequence (P43115 whole entry): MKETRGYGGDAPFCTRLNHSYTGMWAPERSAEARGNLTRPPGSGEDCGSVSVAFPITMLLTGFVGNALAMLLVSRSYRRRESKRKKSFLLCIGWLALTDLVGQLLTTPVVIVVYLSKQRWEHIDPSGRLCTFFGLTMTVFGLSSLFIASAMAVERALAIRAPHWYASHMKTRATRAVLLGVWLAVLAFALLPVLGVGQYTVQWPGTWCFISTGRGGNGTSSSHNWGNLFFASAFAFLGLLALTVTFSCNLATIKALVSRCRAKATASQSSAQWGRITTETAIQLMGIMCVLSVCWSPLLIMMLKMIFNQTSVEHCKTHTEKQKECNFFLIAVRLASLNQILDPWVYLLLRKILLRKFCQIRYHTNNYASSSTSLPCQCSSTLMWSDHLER

In another experiment the target is Histamine H4 receptor (Homo sapiens, UniProt Q9H3N8).
Experiment [3] has as its target Gamma-aminobutyric acid type B receptor subunit 1 (UniProt Q9Z0U4).
In experiment [4] the target is Protein kinase C gamma type (Homo sapiens, UniProt P05129).
The target of experiment [5] is T2, 5-hydroxytryptamine receptor 3A (Rattus norvegicus, UniProt P35563).
T2 sequence (P35563 whole entry): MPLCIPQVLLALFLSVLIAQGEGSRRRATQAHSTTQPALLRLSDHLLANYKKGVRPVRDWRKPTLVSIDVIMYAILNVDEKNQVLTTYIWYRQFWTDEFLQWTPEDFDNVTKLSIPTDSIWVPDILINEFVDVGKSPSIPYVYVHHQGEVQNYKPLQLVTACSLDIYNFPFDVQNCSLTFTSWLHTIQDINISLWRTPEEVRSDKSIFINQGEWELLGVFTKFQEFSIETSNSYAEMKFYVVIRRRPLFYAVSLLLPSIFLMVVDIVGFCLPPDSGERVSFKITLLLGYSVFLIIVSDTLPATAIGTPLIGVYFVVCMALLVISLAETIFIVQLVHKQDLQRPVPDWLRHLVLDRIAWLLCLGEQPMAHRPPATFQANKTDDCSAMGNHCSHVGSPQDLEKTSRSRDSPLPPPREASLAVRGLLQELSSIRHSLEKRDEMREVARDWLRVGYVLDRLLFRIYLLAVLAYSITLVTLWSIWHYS

In experiment [6] the target is Protein kinase C alpha type (Homo sapiens, UniProt P17252).

Where only a bound is given, the exact number is not on record here.

Sequence of Histamine H3 receptor (Q9JI35 whole entry): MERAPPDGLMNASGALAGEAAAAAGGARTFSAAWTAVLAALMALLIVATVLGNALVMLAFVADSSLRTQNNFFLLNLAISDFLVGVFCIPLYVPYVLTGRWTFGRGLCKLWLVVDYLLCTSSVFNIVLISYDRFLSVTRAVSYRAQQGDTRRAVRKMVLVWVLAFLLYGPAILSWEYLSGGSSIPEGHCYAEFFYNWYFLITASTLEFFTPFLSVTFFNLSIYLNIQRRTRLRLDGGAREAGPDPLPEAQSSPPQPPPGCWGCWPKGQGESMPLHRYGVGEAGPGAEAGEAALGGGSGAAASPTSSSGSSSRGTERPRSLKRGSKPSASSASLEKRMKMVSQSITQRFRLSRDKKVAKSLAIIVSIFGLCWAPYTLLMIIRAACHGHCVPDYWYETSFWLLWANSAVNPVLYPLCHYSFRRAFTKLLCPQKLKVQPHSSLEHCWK
Sequence of Gamma-aminobutyric acid type B receptor subunit 1 (Q9Z0U4 whole entry): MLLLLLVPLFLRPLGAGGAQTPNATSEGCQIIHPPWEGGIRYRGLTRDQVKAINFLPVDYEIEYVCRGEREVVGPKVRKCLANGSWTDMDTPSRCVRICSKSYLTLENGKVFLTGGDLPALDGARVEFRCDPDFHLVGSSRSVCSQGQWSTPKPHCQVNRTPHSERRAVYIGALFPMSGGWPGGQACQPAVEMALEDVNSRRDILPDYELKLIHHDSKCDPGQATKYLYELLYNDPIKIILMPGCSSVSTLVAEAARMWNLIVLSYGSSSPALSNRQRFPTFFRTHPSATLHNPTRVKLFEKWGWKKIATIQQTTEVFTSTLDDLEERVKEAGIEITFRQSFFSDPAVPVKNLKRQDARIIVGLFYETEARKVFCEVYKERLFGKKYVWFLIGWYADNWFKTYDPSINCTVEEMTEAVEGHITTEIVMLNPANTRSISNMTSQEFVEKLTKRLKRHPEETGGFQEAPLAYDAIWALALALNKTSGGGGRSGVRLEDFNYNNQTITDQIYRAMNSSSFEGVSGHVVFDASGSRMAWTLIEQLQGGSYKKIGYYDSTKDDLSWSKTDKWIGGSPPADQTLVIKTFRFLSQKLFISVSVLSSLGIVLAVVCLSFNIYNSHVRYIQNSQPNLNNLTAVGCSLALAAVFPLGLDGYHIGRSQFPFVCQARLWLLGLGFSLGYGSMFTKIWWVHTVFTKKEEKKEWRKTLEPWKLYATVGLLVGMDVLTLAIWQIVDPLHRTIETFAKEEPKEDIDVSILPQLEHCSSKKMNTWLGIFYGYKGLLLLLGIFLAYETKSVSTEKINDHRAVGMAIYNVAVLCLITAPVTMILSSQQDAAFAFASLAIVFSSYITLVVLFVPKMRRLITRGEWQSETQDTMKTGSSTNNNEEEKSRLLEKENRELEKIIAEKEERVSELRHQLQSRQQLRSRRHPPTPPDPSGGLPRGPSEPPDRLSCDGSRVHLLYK
Sequence of Histamine H4 receptor (Q9H3N8 whole entry): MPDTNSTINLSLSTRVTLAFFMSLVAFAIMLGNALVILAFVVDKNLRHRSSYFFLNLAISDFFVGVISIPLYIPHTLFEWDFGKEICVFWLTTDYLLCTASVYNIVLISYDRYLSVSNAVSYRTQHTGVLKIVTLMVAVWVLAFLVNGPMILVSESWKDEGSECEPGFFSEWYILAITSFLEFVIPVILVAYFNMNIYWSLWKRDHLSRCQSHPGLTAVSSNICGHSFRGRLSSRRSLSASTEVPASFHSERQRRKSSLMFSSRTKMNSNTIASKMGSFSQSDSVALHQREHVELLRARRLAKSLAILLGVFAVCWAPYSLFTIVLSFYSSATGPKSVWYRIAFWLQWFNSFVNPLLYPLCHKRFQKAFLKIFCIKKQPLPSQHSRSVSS
Sequence of Prostaglandin E2 receptor EP4 subtype (P35408 whole entry): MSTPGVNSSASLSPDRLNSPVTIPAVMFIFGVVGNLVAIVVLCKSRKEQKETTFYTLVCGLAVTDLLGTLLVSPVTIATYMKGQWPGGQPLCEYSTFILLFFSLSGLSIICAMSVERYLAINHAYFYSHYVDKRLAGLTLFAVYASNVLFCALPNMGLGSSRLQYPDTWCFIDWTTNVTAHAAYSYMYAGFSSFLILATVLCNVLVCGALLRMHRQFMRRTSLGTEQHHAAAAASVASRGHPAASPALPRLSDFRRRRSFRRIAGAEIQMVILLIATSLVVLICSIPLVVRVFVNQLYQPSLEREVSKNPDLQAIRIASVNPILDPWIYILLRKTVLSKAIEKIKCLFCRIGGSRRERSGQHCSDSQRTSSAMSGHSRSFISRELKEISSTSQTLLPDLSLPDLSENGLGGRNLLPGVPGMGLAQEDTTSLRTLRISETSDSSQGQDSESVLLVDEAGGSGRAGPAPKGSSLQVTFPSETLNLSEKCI

In general, Ki refers to the dissociation constant of the complex between target and ligand, obtained from inhibition or displacement. As to `O=C1CCc2ccc(OCCCCN3CCN(c4cccc(Cl)c4Cl)CC3)cc2N1` [7-{4-[4-(2,3-dichlorophenyl)piperazin-1-yl]butoxy}-3,4-dihydroquinolin-2(1H)-one], the Ki in experiment [1] is more than 10 µM; on Histamine H3 receptor it was 0.224 µM; in experiment [2], more than 10 µM; at Histamine H4 receptor it was more than 10 µM; in experiment [3], more than 10 µM; in experiment [4] it was 8 µM. Also, the figures for the Ki in experiment [5] and in experiment [6] were 0.63 µM and more than 10 µM, respectively.
